Test results from patent US20240342166A1, “PHARMACEUTICAL COMPOSITION FOR PREVENTING OR TREATING TUMOR, AND USE THEREOF” (TIUMBIO CO., LTD., priority 2021, published 2024).

Experiments:
[1] = test system: WEHI-164 cell lines (Murine sarcoma cells); test: Sarcoma mouse model (Example 3); type: in vivo; conditions: Compound 1 50 mg/kg twice a day p.o.
Protocol: (§1) 60 female BALB/C mice, 6-8 weeks old, were purchased from Vital River Laboratories Research Model and Services Company.
Drugs were administered from Day 7 to Day 23 from the WEHI-164 cell line transplantation date.
The difference in tumor volumes during the study period was statistically analyzed using one-tailed t-test, ANOVA and Tukey's multiple comparison test.

[2] = test system: MBT2 cell lines (Murine bladder cancer cells); test: Bladder cancer mouse model (Example 5); conditions: tumor volume on Day 30 from the cell line inoculation date; responder = tumor volume less than 1/4 of 1,500 mm^3; Compound 1 alone 15 mg/kg twice a day, in combination 50 mg/kg twice a day p.o.; anti-PD-1 antibody 12.5 mg/kg twice a week i.p.
Protocol: C3H/HeN female mice, 7 weeks old, were purchased from OrientBio. 2.5×10^5 MBT2 cell lines (Murine bladder cancer cells) were injected subcutaneously into the right flank of each mouse to transplant a cancer cell line. The MBT2 cell line transplantation date was determined as Day 0, and the tumor volume was measured on Day 6.
A 0.9% physiological saline solution was prepared as a vehicle, and a mixed solution of an anti-PD-1 antibody (BioXCell) and PBS, and a mixed solution of Compound 1 and the vehicle were prepared as study drugs.
The mice selected in Example 5.1 were assigned to a control group, a group in which an anti-PD-1 antibody was administered, a group in which Compound 1 was administered, or a group in which Compound 1 was administered in combination with an anti-PD-1 antibody, respectively. Drugs were administered from Day 6 to Day 28 from the MBT2 cell line transplantation date.
The mouse tumor volume and weight were measured three times a week during the study period after the drug administration. The tumor volume was measured by the same method as the method for measuring the tumor volume in Example 1.1.2.

[3] = test system: 4T1 cell lines (Murine breast cancer cells); test: Breast cancer mouse model (Example 4); type: in vivo; conditions: Day 23 from the cell line inoculation date; Compound 1 50 mg/kg twice a day p.o.; anti-PD-1 or anti-CTLA-4 antibody 10 mg/kg every three days i.p.
Excerpt: as §1
The difference in tumor volumes was statistically analyzed using ANOVA and Tukey's multiple comparison test.

[4] = test system: human peripheral blood mononuclear cells (hPBMCs); test: In vitro IFN-γ secretion in TGF-β-inhibited, anti-CD3/anti-CD28-stimulated hPBMCs (ELISA); type: cell-based; conditions: treated with anti-CD3 antibodies, anti-CD28 antibodies and TGF-β; stimulated for 72 hours; IFN-γ ELISA of supernatants
Protocol: A 6-well plate was coated with anti-CD3 monoclonal antibodies (OKT3) at 4° C. overnight. Each well of the 6-well plate was suctioned with an antibody solution, and washed using PBS. hPBMCs were plated on the coated 6-well plate. In order to increase the reactivity of hPBMCs, culturing was performed for 5 days under the conditions of 37° C., 5% carbon dioxide humidification incubator. The hPBMCs cultured for 5 days were inoculated in a 96-well plate at a concentration of 1×10^5 cells/well. The hPBMCs inoculated in the 96-well plate were treated with lenvatinib or Compound 1 and the hPBMCs were incubated for 1 hour, then TGF-β was added thereto and the hPBMCs were cultured for 1 hour. […] After 72 hours, the supernatants were recovered and conventional IFN-γ ELISA was performed. The IFN-γ content generated for each group was measured. Data analysis was performed using Prism 5 (GraphPad Software, Inc.), and statistical analysis was performed using One-way ANOVA and Tukey's multiple comparison.

[5] = test system: CT26 cell lines (Murine colon cancer cells); test: Colorectal cancer mouse model (Example 2); type: in vivo; conditions: Day 26 from the drug administration date; groups without anti-CTLA-4 antibody; Compound 1 50 mg/kg twice a day p.o.; anti-PD-1 antibody 10 mg/kg once every three days i.p.; lenvatinib 10 mg/kg p.o.
Protocol: 170 female BALB/C mice, which were 6-8 weeks old, were purchased from OrientBio, and cancer cell lines were transplanted by subcutaneously injecting 7.5×10^5 CT26 cell lines (Murine colon cancer cells) into the right flank of each mouse.
The mice selected in Example 2.1 were assigned to the groups listed in Table 4 below, and vehicles or drugs were administered, and drug administration was initiated on Day 7 from the cell line inoculation date, and the study was terminated on Day 27 from the drug administration date.
In this case, the mouse tumor volume was calculated by the same method as the tumor volume calculation method of Example 1.1.2.
Tumor volume changes and weight changes for each group were statistically analyzed using Two-way ANOVA test, Bonferroni test, and one-tailed t-test.

B16F10 cell lines = test: Melanoma mouse model, anti-PD-1 antibody and Compound 1 (Example 1.1); type: in vivo; conditions: Day 15 from the drug administration date; C57BL/6 mice; Compound 1 50 mg/kg twice a day p.o.; anti-PD-1 antibody 10 mg/kg once every three days i.p.
Excerpt: 40 female C57BL/6 mice, which were 6-8 weeks old, were purchased from OrientBio, and 1×10^6 B16F10 cell lines (KCLB, #80008) were subcutaneously injected into the right flank of each mouse, thereby transplanting the cancer cell lines thereto.
The mice were classified according to the mean and deviation of the tumor volume on Day 9.
A change in tumor volume for each group was statistically analyzed using Two-way ANOVA test.

Structure (SMILES)	complete remission rate of the tumor ([1]; anti-CTLA-4 antibody 10 mg/kg once a week i.p., compared to the vehicle control group)	tumor volume smaller than the tumor volume of the control group ([1]; Day 16 from the drug administration initiation date, anti-PD-1 antibody 10 mg/kg once a week i.p.)	Response individual ratio (percent) [2]	Response individual ratio (responders/mice) [2]	tumor volume reduced compared to the tumor volume of the control group [3]	secretion of IFNγ in human PBMCs [4]	drop in tumor volume compared to the tumor volume of the control group (vehicle) [5]	tumor volume lower than the tumor volume measured in the control group (B16F10 cell lines)
Cc1cccc(-c2nc3n(c2-c2ccc4ncnn4c2)CCN3)n1.O=P(O)(O)O [Compound 1, 6-(6-(6-methylpyridine-2-yl)-2,3-dihydro-1H-imidazo[1,2-a]imidazol-5-yl)-[1,2,4]triazole[1,5-a]pyridine phosphate]	30%	71%	9%	1/11	16%	increased secretion of IFNγ	59%	44%
COc1cc2nccc(Oc3ccc(NC(=O)NC4CC4)c(Cl)c3)c2cc1C(N)=O [lenvatinib, reference compound]						increased secretion of IFNγ	30%	
